Entries after “also recorded” stand apart in the source; their conditions may differ.
Tests used:
mice [1] = assay: Peripheral blood values following EPO vs. AVP injections in hemorrhage; type: in vivo, mouse
Description: AVP (100 μg/kg bodyweight) or EPOetin alfa (50 U/bodyweight, EPOgen) was administered intra-peritoneally to mice, immediately following hemorrhage. […] Hematocrit and reticulocyte counts were measured at different time points.

human CD34^+ cells [2] = assay: BrdU cell proliferation assay, human CD34+ cells; type: cell-based
Description: (§1) Sorted mouse bone marrow LSK cells (10000 cells/well) were plated in a 96 well plate in Stemspan serum free expansion medium ([…] Technologies, Vancouver, Canada) with Pen/Strep, and the following hematopoietic factors: 100 ng/ml TPO, 50 ng/ml FLT3L, 50 ng/ml IL-3 and SCF 100 ng/ml (Peprotech, Rocky Hill, N.J.). Cells were treated with […] (Sigma-Aldrich, St. Louis, Mo.). When using human CD34^+ cells (5000 cells/well), human SCF, TPO, FLT3L and G-CSF (Peprotech, each at 50-100 ng/ml) were added to the Stemspan medium. Cells were treated with 10^−8M-10^−14M AVP. After 24 hours, BrdU at a 1:1000 concentration was added to the cultures and incorporation of BrdU was measured using the Cell Proliferation ELISA BrdU kit (Roche, Mannheim, Germany) after another 24 hours of incubation.

mice [3] = assay: Sublethal irradiation anemia model; type: in vivo, mouse
Description: Mice were irradiated with 4.5 Grays, and 24 hours later mice were implanted with ALZET micro-osmotic pumps as described above to deliver AVP or vehicle. Mice were treated with Trimethoprim and Sulfamethoxazole (Bactrim, Septra) for 7 days before irradiation and continued the treatment for 4 weeks after irradiation. Using a pediatric formulation, the stock concentration contains 40 mg/5 ml Trimethoprim and 200 mg/5 ml Sulfa, so that the treated drinking water will deliver 0.13 mg/ml trimethoprim and 0.67 mg/ml sulfa to the mice.

[4] = test system: mouse bone marrow LSK cells; assay: BrdU cell proliferation assay, sorted mouse bone marrow LSK cells; type: cell-based; conditions: 10^−8M-10^−14M, 2 days culture
Description: as §1

human CD34^+ cells [5] = assay: Brattleboro/LE rat BMSC and human CD34+ progenitor co-culture, BrdU; type: cell-based; conditions: AVP 10^−13 M
Description: Rat BMSCs were isolated and cultured from the bone marrow of 5-6 weeks old male Brattleboro (animals that lack the ability to produce vasopressin) and Long-Evans rats (control strain for the Brattleboro rats) as described before. For flow cytometry studies, 100000 rat BMSCs per well were plated in αMEM medium (20% FBS) in 12 well plates in quadruplicates and incubated overnight. Next day, medium was removed and 200000 human CD34 cells per well were added in Stemspan medium with factors (human SCF, TPO, FLT3L and G-CSF 100 ng/ml). Co-culture was stimulated with AVP or left unstimulated (PBS) and next day BrdU was added. After 24 hours the cells were trypsinized, brought up in αMEM (20% FBS), resuspended and strained through 70 μm cell strainer. For normalization, Sigma beads were added to each sample tube. Cells were washed with FACS buffer and stained for human CD34 and CD38. The subsequent steps were done according to the BD BrdU Flow kit protocol. At flow cytometry measurements, cell numbers were normalized to Sigma bead numbers.

C57BL6 male mice = assay: Hemorrhage anemia model, Alzet pump delivery; type: in vivo, mouse
Description: Mice were anesthetized with isoflurane. Twenty five percent of their calculated circulating blood volume (calculated based on Animal Research Advisory Committee Guidelines for survival bleeding of mice and rats, OACU, NIH) was drained from the retro-orbital plexus.
The reticulocyte ratio of peripheral blood was determined using the Retic-Count flow kit (BD Biosciences) according to the manufacturer's instructions. Hematocrit values were measured with an automated analyzer and microhematocrit tubes. The reticulocyte index was calculated as follows: reticulocyte ratio %/total gated cells×hematocrit/45.
To infuse vasopressin into the mice, AVP filled ALZET pumps were implanted subcutaneously on the dorsal aspect of the neck (5 ug/day, Alzet 1007D—7 days, 2002-14 days). Vasopressin was also given immediately and 6 hours later as a bolus injection (100 μg/kg). Alzet pumps were inserted subcutaneously. The dimensions and pump specification are: ALZET, (DURECT Corporation, Cupertino, Calif., USA) mini-osmotic pump models 1007D or 2002. The pumps deliver 0.5 μl/h of the desired substance for a for 2-week period. In some cases, erythropoietin antibody (100 μg/mice) was given before anesthesia with the corresponding control antibody. […] Following the initial hemorrhage blood samples were taken at 2, 4 and in some cases 6 days later to determine hematocrit and corrected reticulocyte values.

splenectomized mice = assay: Hemorrhage in splenectomized mice; type: in vivo, mouse; conditions: splenectomized mice vs controls
Description: Three to four month old mice were splenectomized and recovered for a month. AVP was administered at the time of bleeding and blood was sampled 2 and 4 days later for hematocrit and reticulocyte measurements.

SMILES: NC(=O)CC[C@@H]1NC(=O)[C@H](Cc2ccccc2)NC(=O)[C@H](Cc2ccc(O)cc2)NC(=O)[C@@H](N)CSSC[C@@H](C(=O)N2CCC[C@H]2C(=O)N[C@@H](CCCN=C(N)N)C(=O)NCC(N)=O)NC(=O)[C@H](CC(N)=O)NC1=O [AVP, [Arg8]-Vasopressin]
- increase in hematocrit compared to PBS (mice [1]; AVP 100 μg/kg i.p. just after hemorrhage): only statistically significant at 12 and 24 hours; also recorded: significant increase in hematocrit 12 hours following the insult
- differences in hematocrit between EPO and AVP (mice [1]; after hemorrhage): significant at 6, 12 and 24 hours and disappeared 5 days after hemorrhage
- proliferation (BrdU) of human CD34+ cells / HSPCs (human CD34^+ cells [2]): induced proliferation; also recorded: significantly increased the proliferation
- outcome measures (hematocrit, corrected reticulocytes) (mice [3]; sublethal irradiation, day 2 and day 4): significantly improved outcome measures on day 2 and to some extent on day 4
- hematocrit and reticulocyte numbers (mice [3]; sublethally irradiated mice): rapid elevations in hematocrit and reticulocyte numbers
- proliferation (BrdU incorporation) of mouse LSK cells [4]: induced proliferation; also recorded: stimulated LSK proliferation; also recorded: significantly increased the proliferation
- proliferation of CD34+ cells (human CD34^+ cells [5]; Brattleboro-derived BMSCs): failed to induce proliferation
- proliferation of CD34+ cells (human CD34^+ cells [5]; LE BMSCs): did cause CD34^+ cells to proliferate
- corrected reticulocyte numbers (C57BL6 male mice; 2 days post hemorrhage): significant increase; also recorded: had increased
- hematocrit (C57BL6 male mice; 2 days post hemorrhage): significant increase
- hematocrit (C57BL6 male mice; 4 days post hemorrhage): significantly higher hematocrit
- number of highly fluorescent (high intensity) reticulocytes (C57BL6 male mice; anemia models, FACS with thiazol orange): significantly increased
- hematocrits (C57BL6 male mice; between days 2 and 4 after removal of 25% of blood volume): also increased
- recovery times (C57BL6 male mice; hemorrhage, FIG. 9D): significantly improved recovery times
- AVP-induced hematocrit response (splenectomized mice): no different from controls
